Laboratory results as given in patent US20120270237A9, “METHODS FOR THE IDENTIFICATION OF KINASE INTERACTING MOLECULES AND FOR THE PURIFICATION OF KINASE PROTEINS” (Cellzone AG, priority 2009, published 2012).

Key:
[1] = molecular target: T1, kinases from mixed HeLa placenta lysates (Homo sapiens, UniProt O75460); test: Kinobeads competition binding with immobilized CZC25342, mixed HeLa placenta lysates (Example 5, Table 7); conditions: kinase IRE1; 10 μM free compound; HeLa Placenta lysate mix
T1 construct: capturing and identification of kinases from mixed HeLa placenta lysates; endogenous in cells; host or cells: mixed lysate of HeLa cells and placenta tissue
Procedure, shortened: (§1)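 Mixed HeLa/placenta lysate was preincubated with 10 μM free CZC25342 or DMSO, followed by capture on beads bearing immobilized compound. Bound proteins were eluted, separated by SDS-PAGE, trypsin-digested, iTRAQ-labelled and quantified by LC-MS/MS. Percent competition was taken against the DMSO control.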

[2] = molecular target: T2, kinases from mixed HeLa placenta lysates (Homo sapiens, UniProt Q13557); test: as above; conditions: kinase CaMK2d; 10 μM free compound; HeLa Placenta lysate mix
T2 construct: capturing and identification of kinases from mixed HeLa placenta lysates; endogenous in cells; host or cells: mixed lysate of HeLa cells and placenta tissue
Procedure, shortened: as §1

[3] = molecular target: T3, kinases from mixed HeLa placenta lysates (Homo sapiens, UniProt Q9UHD2); test: as above; conditions: kinase TBK1; 10 μM free compound; HeLa Placenta lysate mix
T3 construct: capturing and identification of kinases from mixed HeLa placenta lysates; endogenous in cells; host or cells: mixed lysate of HeLa cells and placenta tissue
Procedure, shortened: as §1

[4] = molecular target: T4, kinases from mixed HeLa placenta lysates (Homo sapiens, UniProt Q05397); test: as above; conditions: kinase FAK; 10 μM free compound; HeLa Placenta lysate mix
T4 construct: capturing and identification of kinases from mixed HeLa placenta lysates; endogenous in cells; host or cells: mixed lysate of HeLa cells and placenta tissue
Procedure, shortened: as §1

[5] = molecular target: T5, kinases from mixed HeLa placenta lysates (Homo sapiens, UniProt Q99683); test: as above; conditions: kinase MAP3K5; 10 μM free compound; HeLa Placenta lysate mix
T5 construct: capturing and identification of kinases from mixed HeLa placenta lysates; endogenous in cells; host or cells: mixed lysate of HeLa cells and placenta tissue
Procedure, shortened: as §1

[6] = molecular target: T6, kinases from mixed HeLa placenta lysates (Homo sapiens, UniProt P78356); test: as above; conditions: kinase PIP5K2B; 10 μM free compound; HeLa Placenta lysate mix
T6 construct: capturing and identification of kinases from mixed HeLa placenta lysates; endogenous in cells; host or cells: mixed lysate of HeLa cells and placenta tissue
Procedure, shortened: as §1

TGFbR1 = TGFbR1 (Homo sapiens, UniProt P36897); test: Kinobeads competition binding, HL60 cell lysate; set-up: endogenous in cells; conditions: 10 μM free compound
Description: (§2) To one aliquot of cell lysate 10 μM of the free compound (FIG. 3, CZC31326) was added and allowed to bind to proteins in the lysate. Then the affinity matrix with the immobilized compound (Example 1) was added to capture proteins that were not interacting with the previously added free compound. Beads were separated from the lysate and bead bound proteins were eluted in SDS sample buffer and subsequently separated by SDS-Polyacrylamide gel electrophoresis (FIG. 4). Suitable gel bands were cut out and subjected to in-gel proteolytic digestion with trypsin. The second lysate aliquot was processed identically, however no free compound was added (DMSO solvent control). Peptides originating from samples 1 and 2 were labeled with iTRAQ reagents (iTRAQ 114 and iTRAQ 117) and the combined samples were analyzed with a nano-flow liquid chromatography system coupled online to a tandem mass spectrometer (LC-MS/MS) experiment followed by iTRAQ reporter ion quantification in the MS/MS spectra (Ross et al., 2004. Mol. Cell. Proteomics 3(12):1154-1169). Further experimental protocols can be found in WO2006/134056 and a previous publication (Bantscheff et al., 2007. Nature Biotechnology 25, 1035-1044). Sepharose-beads with the immobilized compound (100 μl beads per pull-down experiment) were equilibrated in lysis buffer and incubated with a cell lysate sample containing 50 mg of protein on an end-over-end shaker (Roto Shake Genie, Scientific Industries Inc.) for 2 hours at 4° C. Beads were collected, transferred to Mobicol-columns (MoBiTech 10055) and washed with 10 ml lysis buffer containing 0.4% NP40 detergent, followed by 5 ml lysis buffer containing 0.2% detergent. To elute bound proteins, 60 μl 2×SDS sample buffer was added to the column. The column was incubated for 30 minutes at 50° C. and the eluate was transferred to a siliconized microfuge tube by centrifugation. Proteins were then alkylated with 108 mM iodoacetamid. Proteins were then separated by SDS-Polyacrylamide electrophoresis (SDS-PAGE). The peptide extracts of samples treated with 10 μM of free compound (CZC31326) and the solvent control (0.5% DMSO) were treated with different variants of the isobaric tagging reagent (iTRAQ Reagents Multiplex Kit, part number 4352135, Applied Biosystems, Foster City, Calif., USA). The iTRAQ reagents are a set of multiplexed, amine-specific, stable isotope reagents that can label peptides on amino groups in up to four different biological samples enabling simultaneous identification and quantitation of peptides. The iTRAQ reagents were used according to instructions provided by the manufacturer. The samples were resuspended in 10 μl 50 mM TEAB solution, pH 8.5 and 10 μl ethanol were added. The iTRAQ reagent was dissolved in 120 μl ethanol and 10 μl of reagent solution were added to the sample. The labeling reaction was performed at room temperature for one hour on a horizontal shaker and stopped by adding 5 μl of 100 mM TEAB and 100 mM glycine in water. The two labeled sampled were then combined, dried in a vacuum centrifuge and resuspended in 10 μl of 0.1% formic acid in water. Relative protein quantitation was performed using peak areas of iTRAQ reporter ion signals essentially as described in an earlier publication (Bantscheff et al., 2007. Nature Biotechnology 25, 1035-1044).

CDC2 = CDC2 (Homo sapiens, UniProt P06493); test: Kinobeads competition binding, HL60 cell lysate; set-up: endogenous in cells; conditions: 10 μM free compound
Description: as §2

JNK1 = JNK1 (Homo sapiens, UniProt P45983); test: Kinobeads competition binding, HL60 cell lysate; set-up: endogenous in cells; conditions: 10 μM free compound
Description: as §2

PLK4 = PLK4 (Homo sapiens, UniProt O00444); test: Kinobeads competition binding, HL60 cell lysate; set-up: endogenous in cells; conditions: 10 μM free compound
Description: as §2

CK2a1 = CK2a1 (Homo sapiens, UniProt P68400); test: Kinobeads competition binding, HL60 cell lysate; set-up: endogenous in cells; conditions: 10 μM free compound
Description: as §2

T6 sequence (P78356 whole entry): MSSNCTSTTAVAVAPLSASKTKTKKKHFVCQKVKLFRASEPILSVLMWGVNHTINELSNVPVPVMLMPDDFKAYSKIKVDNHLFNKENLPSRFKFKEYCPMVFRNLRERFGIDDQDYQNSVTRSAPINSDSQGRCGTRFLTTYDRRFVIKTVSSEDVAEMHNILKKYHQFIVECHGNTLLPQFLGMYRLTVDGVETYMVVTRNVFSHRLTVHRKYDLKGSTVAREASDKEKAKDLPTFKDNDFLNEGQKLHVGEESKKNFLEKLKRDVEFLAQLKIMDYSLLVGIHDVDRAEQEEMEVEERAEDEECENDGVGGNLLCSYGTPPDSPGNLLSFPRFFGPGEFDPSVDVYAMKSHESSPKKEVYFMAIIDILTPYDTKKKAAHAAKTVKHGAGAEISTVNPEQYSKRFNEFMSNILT
PLK4, sequence (O00444 whole entry): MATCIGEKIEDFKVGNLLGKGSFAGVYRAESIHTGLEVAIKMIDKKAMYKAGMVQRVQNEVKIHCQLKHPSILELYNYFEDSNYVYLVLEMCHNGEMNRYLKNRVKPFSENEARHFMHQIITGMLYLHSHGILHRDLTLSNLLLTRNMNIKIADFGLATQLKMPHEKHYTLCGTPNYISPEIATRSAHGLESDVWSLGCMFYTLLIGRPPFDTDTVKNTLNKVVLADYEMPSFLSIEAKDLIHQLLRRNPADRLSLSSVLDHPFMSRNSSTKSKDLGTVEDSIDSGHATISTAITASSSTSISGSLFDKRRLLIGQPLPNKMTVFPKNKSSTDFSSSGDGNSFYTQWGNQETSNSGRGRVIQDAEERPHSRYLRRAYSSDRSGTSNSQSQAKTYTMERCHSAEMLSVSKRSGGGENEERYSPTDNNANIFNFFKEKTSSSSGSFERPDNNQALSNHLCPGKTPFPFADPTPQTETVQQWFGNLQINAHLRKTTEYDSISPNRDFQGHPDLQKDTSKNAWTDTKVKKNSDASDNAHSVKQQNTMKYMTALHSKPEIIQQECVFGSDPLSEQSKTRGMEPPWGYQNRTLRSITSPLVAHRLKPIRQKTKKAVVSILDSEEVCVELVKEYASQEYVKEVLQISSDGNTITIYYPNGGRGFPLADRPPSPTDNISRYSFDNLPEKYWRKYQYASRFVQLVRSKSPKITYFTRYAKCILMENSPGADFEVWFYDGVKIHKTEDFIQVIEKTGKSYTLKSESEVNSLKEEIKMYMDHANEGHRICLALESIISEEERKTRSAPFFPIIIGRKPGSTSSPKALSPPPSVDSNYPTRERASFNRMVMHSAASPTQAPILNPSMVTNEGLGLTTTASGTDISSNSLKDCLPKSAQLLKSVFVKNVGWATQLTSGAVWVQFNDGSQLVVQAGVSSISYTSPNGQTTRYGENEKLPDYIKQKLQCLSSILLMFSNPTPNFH
T5 sequence (Q99683 whole entry): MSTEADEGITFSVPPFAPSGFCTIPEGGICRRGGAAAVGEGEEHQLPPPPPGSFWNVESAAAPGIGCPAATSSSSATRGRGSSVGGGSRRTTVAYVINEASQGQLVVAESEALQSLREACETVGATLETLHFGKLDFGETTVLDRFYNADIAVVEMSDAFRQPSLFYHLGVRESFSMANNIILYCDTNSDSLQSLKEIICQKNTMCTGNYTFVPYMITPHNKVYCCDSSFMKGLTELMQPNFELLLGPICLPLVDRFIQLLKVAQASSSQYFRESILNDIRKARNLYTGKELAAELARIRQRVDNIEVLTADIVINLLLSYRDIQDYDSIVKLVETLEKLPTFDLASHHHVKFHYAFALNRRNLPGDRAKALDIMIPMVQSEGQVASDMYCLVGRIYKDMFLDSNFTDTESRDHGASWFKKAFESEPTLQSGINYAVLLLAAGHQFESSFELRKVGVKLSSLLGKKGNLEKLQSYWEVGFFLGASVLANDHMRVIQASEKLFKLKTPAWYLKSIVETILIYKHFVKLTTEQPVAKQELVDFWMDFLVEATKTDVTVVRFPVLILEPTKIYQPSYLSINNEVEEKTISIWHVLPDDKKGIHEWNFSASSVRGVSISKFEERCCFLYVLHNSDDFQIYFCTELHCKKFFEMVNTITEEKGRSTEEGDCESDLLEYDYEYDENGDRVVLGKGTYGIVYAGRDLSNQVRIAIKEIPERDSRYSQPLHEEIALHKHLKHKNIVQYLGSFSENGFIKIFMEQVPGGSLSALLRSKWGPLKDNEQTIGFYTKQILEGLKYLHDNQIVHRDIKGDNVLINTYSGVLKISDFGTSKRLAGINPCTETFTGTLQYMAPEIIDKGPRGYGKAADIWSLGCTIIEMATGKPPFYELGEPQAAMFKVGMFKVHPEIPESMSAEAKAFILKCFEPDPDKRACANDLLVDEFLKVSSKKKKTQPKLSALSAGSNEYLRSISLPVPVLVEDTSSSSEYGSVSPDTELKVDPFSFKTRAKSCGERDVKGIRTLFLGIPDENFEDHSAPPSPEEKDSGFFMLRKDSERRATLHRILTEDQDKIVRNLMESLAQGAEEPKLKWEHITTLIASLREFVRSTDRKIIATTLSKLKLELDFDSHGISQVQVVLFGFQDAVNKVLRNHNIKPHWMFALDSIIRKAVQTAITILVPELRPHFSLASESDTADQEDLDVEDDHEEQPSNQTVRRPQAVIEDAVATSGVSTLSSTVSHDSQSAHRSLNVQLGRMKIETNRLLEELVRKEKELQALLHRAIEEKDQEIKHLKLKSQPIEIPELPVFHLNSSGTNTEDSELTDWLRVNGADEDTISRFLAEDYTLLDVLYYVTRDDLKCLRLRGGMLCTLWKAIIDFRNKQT
JNK1, sequence (P45983 whole entry): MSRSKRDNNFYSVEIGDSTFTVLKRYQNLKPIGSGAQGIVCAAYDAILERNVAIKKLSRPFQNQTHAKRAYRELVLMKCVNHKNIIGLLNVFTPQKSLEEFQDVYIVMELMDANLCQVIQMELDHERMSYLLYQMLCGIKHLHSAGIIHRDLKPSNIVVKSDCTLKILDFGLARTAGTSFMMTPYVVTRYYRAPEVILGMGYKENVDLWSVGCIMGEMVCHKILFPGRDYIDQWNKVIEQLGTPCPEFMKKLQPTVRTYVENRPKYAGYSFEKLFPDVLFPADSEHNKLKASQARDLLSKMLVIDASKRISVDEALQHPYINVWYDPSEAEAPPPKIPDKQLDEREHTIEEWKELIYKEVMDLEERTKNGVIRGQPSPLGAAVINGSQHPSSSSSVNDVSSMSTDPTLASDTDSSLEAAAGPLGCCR
CK2a1, sequence (P68400 whole entry): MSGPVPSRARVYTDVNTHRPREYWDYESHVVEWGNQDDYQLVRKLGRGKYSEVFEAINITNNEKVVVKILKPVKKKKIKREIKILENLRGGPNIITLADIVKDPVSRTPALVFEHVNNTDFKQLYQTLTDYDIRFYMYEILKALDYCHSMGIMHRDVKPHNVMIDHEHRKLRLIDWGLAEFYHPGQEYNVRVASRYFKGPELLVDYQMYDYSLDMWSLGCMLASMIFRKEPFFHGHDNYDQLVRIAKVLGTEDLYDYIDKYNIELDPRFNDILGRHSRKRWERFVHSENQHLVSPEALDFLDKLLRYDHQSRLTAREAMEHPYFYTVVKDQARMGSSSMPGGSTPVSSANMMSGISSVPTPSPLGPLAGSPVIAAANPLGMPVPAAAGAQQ
T1 sequence (O75460 19-977): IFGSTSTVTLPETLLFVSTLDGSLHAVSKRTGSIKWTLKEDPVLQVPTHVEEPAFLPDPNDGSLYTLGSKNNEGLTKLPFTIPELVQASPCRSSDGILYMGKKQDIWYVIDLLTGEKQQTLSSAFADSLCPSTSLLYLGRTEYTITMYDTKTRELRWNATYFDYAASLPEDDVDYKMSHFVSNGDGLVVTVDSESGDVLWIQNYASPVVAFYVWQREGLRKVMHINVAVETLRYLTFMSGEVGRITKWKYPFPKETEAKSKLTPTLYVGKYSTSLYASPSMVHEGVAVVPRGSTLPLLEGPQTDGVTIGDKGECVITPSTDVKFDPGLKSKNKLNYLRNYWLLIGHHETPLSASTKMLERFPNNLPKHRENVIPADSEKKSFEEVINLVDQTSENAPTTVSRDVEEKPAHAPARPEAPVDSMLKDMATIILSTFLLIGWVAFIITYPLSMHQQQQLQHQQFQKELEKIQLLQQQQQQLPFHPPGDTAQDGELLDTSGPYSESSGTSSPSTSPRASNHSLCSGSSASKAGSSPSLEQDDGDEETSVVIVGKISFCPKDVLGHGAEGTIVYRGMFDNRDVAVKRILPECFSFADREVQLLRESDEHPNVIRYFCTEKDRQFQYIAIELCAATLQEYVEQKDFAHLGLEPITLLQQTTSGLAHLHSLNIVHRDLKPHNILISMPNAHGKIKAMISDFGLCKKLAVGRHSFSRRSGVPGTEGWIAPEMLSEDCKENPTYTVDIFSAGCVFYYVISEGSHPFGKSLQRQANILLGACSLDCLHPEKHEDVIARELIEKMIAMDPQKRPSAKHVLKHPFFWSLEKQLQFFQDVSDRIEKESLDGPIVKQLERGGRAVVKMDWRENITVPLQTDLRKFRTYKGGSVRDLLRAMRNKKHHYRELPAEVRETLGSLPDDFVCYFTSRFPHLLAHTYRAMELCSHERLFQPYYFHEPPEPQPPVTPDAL
T2 sequence (Q13557 whole entry): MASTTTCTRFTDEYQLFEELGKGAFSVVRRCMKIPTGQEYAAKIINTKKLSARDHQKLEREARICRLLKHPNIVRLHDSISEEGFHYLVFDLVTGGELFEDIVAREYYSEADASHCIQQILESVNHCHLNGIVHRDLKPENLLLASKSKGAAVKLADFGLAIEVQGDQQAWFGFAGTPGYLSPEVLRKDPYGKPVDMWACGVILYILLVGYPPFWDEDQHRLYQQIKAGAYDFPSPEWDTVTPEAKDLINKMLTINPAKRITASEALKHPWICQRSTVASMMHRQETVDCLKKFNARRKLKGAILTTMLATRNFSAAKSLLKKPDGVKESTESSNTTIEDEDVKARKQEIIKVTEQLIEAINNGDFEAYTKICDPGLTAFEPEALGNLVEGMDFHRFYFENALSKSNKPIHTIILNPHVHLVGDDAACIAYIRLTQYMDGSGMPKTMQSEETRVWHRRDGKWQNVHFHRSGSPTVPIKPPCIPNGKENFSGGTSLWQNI

| Competition % IRE1 [1] | Competition % CaMK2d [2] | Competition % TBK1 [3] | Competition % FAK [4] | Competition % MAP3K5 [5] | Competition % PIP5K2B [6] | inhibition at 10 µM (TGFbR1) | inhibition at 10 µM (CDC2) | Competition % (JNK1) | inhibition at 10 µM (PLK4) | inhibition at 10 µM (CK2a1) | SMILES |
| --- | --- | --- | --- | --- | --- | --- | --- | --- | --- | --- | --- |
| 83.4% | 40.6% | 88.8% | 96% | 94.1% | 97.2% |  |  |  |  |  | CS(=O)(=O)Nc1ccccc1Nc1nc(Nc2cccc(OCCN)c2)ncc1F [CZC25342, N-(2-(2-(3-(2-aminoethoxy)phenylamino)-5-fluoropyrimidin-4-ylamino)phenyl)methanesulfonamide] |
|  |  |  |  |  |  | 95.6% | 93.1% | 88.8% | 91.7% | 97.9% | CS(=O)(=O)Nc1ccccc1Nc1nc(Nc2cccc(OCCN)c2)ncc1Cl [CZC31326, N-(2-(2-(3-(2-aminoethoxy)phenylamino)-5-chloropyrimidin-4-ylamino)phenyl)methanesulfonamide] |
